Assay results: US4346102A, “3H-Dihydrofuranone-2 derivatives and pharmaceutical use thereof” (Delalande S.A., priority 1979, dated 1982)
Read-outs that look alike come from different tables or passages of the source.

Tests used:
[1] = Acute toxicity, LD 50 in mice, oral; settings: mouse, in vivo
ptosis (reserpine) = assay: Test A: antagonism with respect to ptosis observed one hour after intravenous injection of reserpine in mice; format: in vivo; settings: Mus musculus, 1 h, read-out: Test A ED 50
Description: Test A: Antagonism with respect to ptosis observed one hour after an intravenous injection (2 mg/kg) of reserpine given to mice according to the protocol described by GOURET C. and THOMAS J. in J. Pharmacol. (Paris, (1973), 4, 401.

[2] = tested on: generalized trembling caused by dl-5-hydroxytryptophane; assay: Test B: potentialization in mice of generalized trembling caused by dl-5-hydroxytryptophane; format: in vivo; settings: Mus musculus, read-out: Test B ED 50
Description: Test B: Potentialization in mice of generalized trembling caused by an intraperitoneal injection of dl-5-hydroxytryptophane, according to the protocol described by GOURET C. and RAYNAUD G. in J. Pharmacol. (Paris), (1974), 5, 231.

[3] = mice, oral, ptosis one hour after reserpine 2 mg/kg i.v.
[4] = mice, oral, dl-5-hydroxytryptophane i.p.

Row | SMILES | LD50 [1] | ED50 (ptosis (reserpine); [3]) | ED50 [2, 4] | ED50 (ptosis (reserpine); po) | ED50 ([2]; po)
1 | COC[C@H]1C[C@@H](c2ccc(OCc3cc(C#N)cc([N+](=O)[O-])c3)cc2)C(=O)O1 (relative stereo) [17 B] | 1700 mg/kg | 0.32 mg/kg | 0.55 mg/kg |  | 
2 | COCC1CC(c2ccc(OCCCCC#N)cc2)C(=O)O1 (stereo not drawn) [Compound 4] | > 2000 mg/kg | 0.3 mg/kg | 0.19 mg/kg |  | 
3 | COCC1C=C(c2ccc(OCc3ccc(F)c(Cl)c3)cc2)C(=O)O1 (stereo not drawn) [Compound 19] | > 2000 mg/kg | 2.1 mg/kg | 2.4 mg/kg |  | 
4 | COC[C@@H]1C[C@@H](c2ccc(OCc3cccc(C#N)c3)cc2)C(=O)O1 (relative stereo) [13 A] | > 2000 mg/kg | 12 mg/kg | 20 mg/kg |  | 
5 | COC[C@H]1C[C@@H](c2ccc(OCc3ccc(F)c(Cl)c3)cc2)C(=O)O1 (relative stereo) [18 B] | > 2000 mg/kg | 5.4 mg/kg | 3.1 mg/kg |  | 
6 | COC[C@H]1C[C@@H](c2ccc(OCc3cccc([N+](=O)[O-])c3)cc2)C(=O)O1 (relative stereo) [8 B] | 2000 mg/kg | 0.58 mg/kg | 0.29 mg/kg |  | 
7 | COC[C@H]1C[C@H](c2ccc(OCc3cc(C#N)cc([N+](=O)[O-])c3)cc2)C(=O)O1 (relative stereo) [17 A] | > 2000 mg/kg | 5.5 mg/kg | 6.4 mg/kg |  | 
8 | COC[C@@H]1C[C@H](c2ccc(OCc3cccc(C#N)c3)cc2)C(=O)O1 (relative stereo) [13 B] | > 2000 mg/kg | 0.9 mg/kg | 1.7 mg/kg |  | 
9 | COC[C@H]1C[C@@H](c2ccc(OCc3ccccc3)cc2)C(=O)O1 (relative stereo) [5 B] |  | 11.5 mg/kg | 15.5 mg/kg |  | 
10 | CC(=O)OC[C@H]1C[C@H](c2ccc(OCc3cccc([N+](=O)[O-])c3)cc2)C(=O)O1 (relative stereo) [7 A] |  | 12.5 mg/kg | 10 mg/kg |  | 
11 | COCC1C=C(c2ccc(OCc3cccc(C#N)c3)cc2)C(=O)O1 (stereo not drawn) [Compound 14, 3-para(metacyanobenzyloxy)-phenyl-5-methoxymethyl-5H-furanone-2] |  | 0.68 mg/kg | 0.55 mg/kg |  | 
12 | COC[C@H]1C[C@H](c2ccc(OCc3ccc(F)c(Cl)c3)cc2)C(=O)O1 (relative stereo) [18 A] |  | 23 mg/kg | 16 mg/kg |  | 
13 | COCC1C=C(c2ccc(OCc3ccccc3)cc2)C(=O)O1 (stereo not drawn) [Compound 20] | > 2000 mg/kg | 4.4 mg/kg | 4 mg/kg |  | 
14 | O=C1OC(CO)CC1c1ccc(OCC2CCCCC2)cc1 (stereo not drawn) [Compound 2] | > 2000 mg/kg | 5.5 mg/kg | 9 mg/kg |  | 
15 | COCC1C=C(c2ccc(OCc3cccc(Cl)c3)cc2)C(=O)O1 (stereo not drawn) [Compound 11] | > 2000 mg/kg | 2.3 mg/kg | 1.6 mg/kg |  | 
16 | N#Cc1cccc(COc2ccc(C3CC(CO)OC3=O)cc2)c1 (stereo not drawn) [Compound 12] |  | 10 mg/kg | 16 mg/kg |  | 

Row | SMILES | LD50 [1] | ED50 (ptosis (reserpine); [3]) | ED50 [2, 4] | ED50 (ptosis (reserpine); po) | ED50 ([2]; po)
17 | COC[C@H]1C[C@@H](c2ccc(OCc3cccc(Cl)c3)cc2)C(=O)O1 (relative stereo) [10 B] | > 2000 mg/kg | 15 mg/kg | 10 mg/kg |  | 
18 | COC[C@H]1C[C@@H](c2ccc(OCCCCCl)cc2)C(=O)O1 (relative stereo) [3 B] | 2000 mg/kg | 3.6 mg/kg | 1.7 mg/kg |  | 
19 | COC[C@H]1C[C@H](c2ccc(OCc3cccc(Cl)c3)cc2)C(=O)O1 (relative stereo) [10 A] | > 2000 mg/kg | 24 mg/kg | 10 mg/kg |  | 
20 | O=C1O[C@@H](CO)C[C@H]1c1ccc(OCc2cccc([N+](=O)[O-])c2)cc1 (relative stereo) [6 B] | > 2000 mg/kg | 1.6 mg/kg | 2 mg/kg |  | 
21 | O=C1O[C@@H](CO)C[C@@H]1c1ccc(OCc2cccc([N+](=O)[O-])c2)cc1 (relative stereo) [6 A] | > 2000 mg/kg | 4.4 mg/kg | 5.8 mg/kg |  | 
22 | C#CCN(C)Cc1ccccc1 [PARGYLINE, reference compound] | 480 mg/kg | 34 mg/kg | 48 mg/kg |  | 
23 | O=C(CCNNC(=O)c1ccncc1)NCc1ccccc1 [NIALAMIDE, reference compound] | 1100 mg/kg |  |  | 4.5 mg/kg | 5.2 mg/kg
24 | COCC1C=C(c2ccc(OCc3cccc([N+](=O)[O-])c3)cc2)C(=O)O1 (stereo not drawn) [Compound 9] | > 2000 mg/kg | 0.22 mg/kg |  |  | 
25 | C#CCN(C)C(C)Cc1ccccc1 (stereo not drawn) [reference compound] | 520 mg/kg |  |  | 9 mg/kg | 3 mg/kg
26 | O=C1OC(CO)CC1c1ccc(OCc2cccc([N+](=O)[O-])c2)cc1 (stereo not drawn) [Compound 6, 3-para(metanitrobenzyloxy)phenyl-5-hydroxymethyl-3H-dihydrofuranone-2] |  | 1.4 mg/kg | 1.5 mg/kg |  | 
27 | N#Cc1cc(COc2ccc(C3CC(CO)OC3=O)cc2)cc([N+](=O)[O-])c1 (stereo not drawn) [Compound 16] | > 2000 mg/kg | 1.2 mg/kg | 3.5 mg/kg |  | 
28 | COC[C@H]1C[C@H](c2ccc(OCc3cccc([N+](=O)[O-])c3)cc2)C(=O)O1 (relative stereo) [8 A] | > 2000 mg/kg | 6.2 mg/kg | 4.4 mg/kg |  | 
29 | COCC1CC(c2ccc(OCc3cccnc3)cc2)C(=O)O1 (stereo not drawn) [Compound 15] |  | 5.8 mg/kg | 12 mg/kg |  | 
30 | N[C@@H]1C[C@H]1c1ccccc1 (relative stereo) [TRANYLCYPROMINE, reference compound] | 58 mg/kg |  |  | 1.55 mg/kg | 1.37 mg/kg
31 | CC(=O)OC[C@H]1C[C@@H](c2ccc(OCc3cccc([N+](=O)[O-])c3)cc2)C(=O)O1 (relative stereo) [7 B] | > 2000 mg/kg | 2.5 mg/kg | 3.2 mg/kg |  | 
32 | CC(C)CCOc1ccc(C2CC(CO)OC2=O)cc1 (stereo not drawn) [Compound 1] |  | 19 mg/kg | 14 mg/kg |  | 
